Reference: PubChem BioAssay (NCI)
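Protocol summary: plate cells (96-well), add compound at 5 concentrations, incubate 48 h, interpolate endpoints linearly. GI50 marks 50% less growth. Definition used: TGI = concentration required for complete inhibition of growth.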

Experiments:
Assay in all cases: inhibition of tumour cell growth, NCI panel, 48 h
SR leukemia = test system: SR leukemia
IGROV1 ovarian = test system: IGROV1 ovarian
M14 melanoma = test system: M14 melanoma
NCI-H226 lung = test system: NCI-H226 lung
RPMI-8226 leukemia = test system: RPMI-8226 leukemia
CCRF-CEM leukemia = test system: CCRF-CEM leukemia
OVCAR-8 ovarian = test system: OVCAR-8 ovarian
A549 NSCLC = test system: A549 NSCLC
UACC-62 melanoma = test system: UACC-62 melanoma
DU-145 prostate = test system: DU-145 prostate
NCI/ADR-RES ovarian = test system: NCI/ADR-RES ovarian
MDA-MB-231 breast = test system: MDA-MB-231 breast

Compound	TGI (SR leukemia) [µM]	TGI (IGROV1 ovarian) [µM]	TGI (M14 melanoma) [µM]	TGI (NCI-H226 lung) [µM]	TGI (RPMI-8226 leukemia) [µM]	TGI (CCRF-CEM leukemia) [µM]	TGI (OVCAR-8 ovarian) [µM]	TGI (A549 NSCLC) [µM]	TGI (UACC-62 melanoma) [µM]	TGI (DU-145 prostate) [µM]	TGI (NCI/ADR-RES ovarian) [µM]	TGI (MDA-MB-231 breast) [µM]	GI50 (DU-145 prostate) [nM]	GI50 (IGROV1 ovarian) [nM]	GI50 (CCRF-CEM leukemia) [µM]	GI50 (UACC-62 melanoma) [nM]
CN1C(=O)N(c2nc3ccccc3[nH]2)C(C)(C)C1=O	> 100	> 100	> 100	> 100	> 100	> 100	> 100	> 100	> 100	–	–	–	–	–	–	–
CCOC(=O)CCc1ccc(NC(=O)/C=C/c2ccc([N+](=O)[O-])o2)cc1	0.475	> 31.1	2.43	25.5	–	0.957	2.28	15.1	> 20.5	6.39	5.37	3.94	–	–	–	–
COC1(OC)C2C=CC1C([C@](C)(N)CO)C2 (stereo partly specified)	> 100	> 100	> 100	> 100	–	> 100	> 100	> 100	> 100	> 100	–	> 100	–	–	–	–
COC(=O)[C@H](C)N(C)C(=O)[C@H](C)N1[C@@H](c2ccccc2)COC1(C)C	> 100	> 100	> 100	> 100	> 100	> 100	> 100	> 100	> 100	–	> 100	> 100	–	–	–	–
CC(=O)c1cccc(Nc2nc3ccccc3c3[nH]c4ccccc4c23)c1	–	22.3	> 100	–	9.25	> 100	74.9	15.3	5.71	> 100	> 100	51.6	–	–	–	–
CC1OC(CC2C=CCc3c(O)c4c(c(O)c32)C(=O)c2ccccc2C4=O)CC(NC(=O)C(F)(F)F)C1O (stereo unspecified)	13.5	44.6	16.1	31.6	28	20.7	15	–	17.4	–	–	–	–	–	–	–
COC(=O)C(C#N)C1NC(=O)c2ccccc21 (stereo unspecified)	> 100	> 100	> 100	> 100	> 100	> 100	> 100	> 100	> 100	–	–	–	–	–	–	–
O=c1c2ccccc2nc(N/N=C/c2ccc(Cl)cc2)n1-c1ccccc1	> 100	> 100	> 100	> 100	–	> 100	> 100	> 100	> 100	> 100	> 100	> 100	–	–	–	–
CC1=NNC(=O)C1C1C=C(c2c[nH]c3ccccc23)OC1=O (stereo unspecified)	–	> 100	> 100	> 100	> 100	> 100	> 100	> 100	> 100	> 100	> 100	> 100	–	–	–	–
CCCCCCCCCCCCCCCCCCOCC(O)CO (stereo unspecified)	–	> 23.7	–	> 24.2	> 25	> 22.5	> 25	5.32	> 25	–	> 25	–	–	–	–	–
Clc1ccc(N2N=C(c3cccc(Nc4ccncc4)c3)CC2c2ccc(Br)cc2)cc1 (stereo unspecified)	–	3.41	–	–	–	> 100	–	–	3.25	3.25	–	–	1800	1800	3.43	1770
CC(C)(C)OC(=O)C1/C(=C/CBr)CN1C(=O)OC(C)(C)C (stereo unspecified)	–	26.2	41.9	–	18.1	6.22	44.2	38	33.4	–	72.1	–	–	–	–	–
O=Cc1ccc(-c2ccc(S(=O)(=O)O)cc2)o1	> 100	> 100	> 100	> 100	> 100	–	> 100	> 100	> 100	> 100	> 100	> 100	–	–	–	–
C1=Cc2cccc3occ(c23)C=C1	43	> 100	> 100	> 100	–	49.9	> 100	> 100	> 100	> 100	> 100	> 100	–	–	–	–
CCOC(=O)c1ccc(N(CCOS(=O)(=O)c2ccc(C)cc2)CCOS(=O)(=O)c2ccc(C)cc2)cc1	–	> 100	> 100	–	> 100	> 100	> 100	> 100	> 100	–	> 100	86.8	–	–	–	–
C/C(=C\CC/C=C(\C)CC/C=C(\C)CCC1SC1(C)C)CC/C=C(\C)CCC1OC1(C)C (stereo unspecified)	> 100	> 100	> 100	> 100	> 100	> 100	> 100	> 100	–	–	–	–	–	–	–	–
CC(=O)OCC1OC(n2c(O)c(N=NC(N)=S)c3ccc([N+](=O)[O-])cc32)C(OC(C)=O)C1OC(C)=O (stereo unspecified)	60.2	> 100	> 100	84.7	> 100	64.8	43.1	> 100	27.6	–	–	–	–	–	–	–
O=C(NC(CCCCN1C(=O)c2ccccc2C1=O)P(=O)(Oc1ccccc1)Oc1ccccc1)OCc1ccccc1 (stereo unspecified)	> 100	> 100	> 100	> 100	> 100	–	> 100	> 100	> 100	> 100	> 100	–	–	–	–	–
O=C(O)CCC(NC(=O)c1ccc(Oc2nc3ccccc3nc2-c2ccccc2)cc1)C(=O)O (stereo unspecified)	> 100	> 100	> 100	> 100	–	> 100	> 100	> 100	> 100	> 100	> 100	> 100	–	–	–	–
Oc1ccc(/C=N/c2nccs2)c(O)c1	–	> 100	> 100	> 100	–	–	> 100	> 100	> 100	> 100	> 100	> 100	–	–	–	–
CCOC(OC1=C(C#N)CCCC1)C(CC)[Se]c1ccccc1[N+](=O)[O-] (stereo unspecified)	38.9	72	37.8	43	43.4	49.6	48.7	> 100	47	–	–	–	–	–	–	–
